How the values were obtained:
[1] = test system: MAPK signaling in HCT116 cells; assay: Western blot of MAPK signaling markers; format: cell-based, human; settings: HCT116, 4 hours, micromolar concentrations
Experimental: For Western blot studies, HCT116 cells (5×10^6) were seeded into 10 cm dishes in McCoy's 5A plus 10% FBS. […] Cells were allowed to adhere overnight prior to addition of the indicated amount of test compound (BVD-523) or vehicle control. Cells were treated for either 4 or 24 hours before isolation of whole-cell protein lysates, as specified below. Cells were harvested by trypsinisation, pelleted and snap frozen. Lysates were prepared with RIPA (Radio-Immunoprecipitation Assay) buffer, clarified by centrifugation and quantitated by bicinchoninic acid assay (BCA) assay. 20-50 μg of protein was resolved by SDS-PAGE electrophoresis, blotted onto PVDF membrane and probed using the antibodies detailed in Table 5 (for the 4-hour treatment) and Table 6 (for the 24-hour treatment) below. [table]

[2] = test system: MAPK signaling in A375 cells; assay: Western blot of MAPK signaling, cell cycle and apoptosis markers; format: cell-based, human
[3] = test system: ERK; settings: Morris et al., 2013; cited from earlier work

CC(C)Nc1cc(-c2c[nH]c(C(=O)N[C@H](CO)c3cccc(Cl)c3)c2)c(Cl)cn1 [BVD-523]
phosphorylation of ERK-dependent residues (T359/S363) in RSK 1 and 2 proteins [1]: reduced | cyclin-D1 level ([2]; 24 hours of treatment): greatly reduced | phosphorylation of ERK-dependent residues (T359/S363) in RSK 1 and 2 proteins ([2]; A375, 4 hours, micromolar concentrations): reduced | Bim-EL level ([2]; A375, prolonged treatment): increased | apoptosis / PARP cleavage ([2]; A375, prolonged treatment): increased apoptosis was not observed | MAPK feedback phosphatase DUSP6 level ([2]; BRAF mutant cell line, 24 hours of treatment): greatly reduced | autophosphorylation of ERK ([2]; FIG. 1 Western blot): allows for the autophosphorylation of ERK | concentrations required to induce changes in substrate phosphorylation and effector targets of ERK ([2]; RAF and RAS mutant cancer cells, Western blot, 4 or 24 h): low micromolar range

O=C(Nc1ccc2[nH]nc(-c3ccncc3)c2c1)[C@@H]1CCN(CC(=O)N2CCN(c3ccc(-c4ncccn4)cc3)CC2)C1 [SCH772984]
autophosphorylation of ERK [3]: inhibits autophosphorylation of ERK
